We go through one compound from patent US20260198495A1, “BINARY INSECTICIDE COMPOSITION AND USE THEREOF” (SHENYANG SINOCHEM AGROCHEMICALS R & D CO., LTD., priority 2022, published 2026).

What all share (format): in vivo
In assay [1] the test system is 3rd-instar larvae of Spodoptera frugiperda. The experiment in a line: Joint toxicity of I-72 + indoxacarb, corn leaf dipping, Example 3, Table 3. Conditions: Spodoptera frugiperda, foliar, 72 h, A = compound I-72, B = indoxacarb, read-out: LC50. The source says: Test subject: 3rd-instar larvae of Spodoptera frugiperda, a sensitive strain reared indoors.
Experimental method: the dipping method was adopted. The corn leaves cultivated in the greenhouse were taken, cut into leaf segments of 5 cm long, dipped in the prepared pesticide solution for 10 s, and then cut into small pieces of 1.5 cm×1.5 cm after natural air-drying in the shade. These pieces were placed in a 24-well culture plate, and the standard test insects were introduced, with 48 insects for each treatment. The treated test insects were placed in an observation room under certain conditions. The reaction of the test insects was regularly observed, and the number of dead and live insects was investigated 72 h later.
The test conditions, the preparation method of the pesticide solution, and the evaluation method (Sun Y-P) for the joint action type of the mixture were the same as those in Example 1.

Assay [2] deals with 2nd-instar nymphs of Frankliniella occidentalis Pergande. The experiment in a line: Joint toxicity of I-72 + spinetoram, leaf spraying, Example 11, Table 11. To be noted: Frankliniella occidentalis, kidney bean leaf spraying, 48 h, A = compound I-72, B = spinetoram, read-out: LC50. The source says:
Test subject: 2nd-instar nymphs of Frankliniella occidentalis Pergande, a sensitive strain reared indoors.
Experimental method: the spraying method was adopted. The kidney bean leaves cultivated in the greenhouse were selected, and the petioles were wrapped with moist degreased cotton and sealing film. They were evenly sprayed with the pesticide solution in the order from low dosage to high dosage according to the experimental design, placed in a 6-cm-diameter Petri dish with filter paper. After natural air-drying in the shade, the test insects were introduced, with 20 insects for each treatment and 3 replicates. In addition, a blank control was set up. The number of dead and live insects was investigated 48 hours later. The corrected mortality rate was calculated using the Abbott's formula, and the DPS data processing software was used for statistical analysis to calculate the toxicities (LC50 values) of the single test pesticides and the mixtures under the test ratios.
(§1) The test conditions, the preparation of the pesticide solution and the evaluation method were the same as those in Example 1.

The subject of assay [3] is Unaspis yanonensis Kuwana nymphs. In words: whole plant or invertebrate. To be noted: foliar, A = compound I-72, B = spirotetramat, citrus leaf dipping, 120 hours, read-out: LC50. The procedure: Test target: Unaspis yanonensis Kuwana nymphs.
(§2) Preparation of the pesticide solution: according to different test requirements, the test samples were accurately weighed respectively with an electronic analytical balance. The technical pesticides were dissolved in acetone, and then diluted with 0.1% Tween 80 water into a series of pesticide solutions with a certain concentration gradient according to the experimental design dosage.
Experimental method: the activity of the mixture against Unaspis yanonensis Kuwana nymphs on citrus was determined by adopting the dipping method. First, the collected citrus leaves with Unaspis yanonensis Kuwana nymphs were treated with the pesticide solution in the order from low dosage to high dosage according to the experimental design. After air-drying, the petioles were kept moist with degreased cotton, and then the leaves were placed in a Petri dish, with 3 replicates for each treatment. In addition, a blank control was set up.
The treated test materials were placed in an observation room, and the temperature, humidity and illumination of the observation room could be adjusted as needed. The number of dead and live insects was investigated 120 hours later.

Assay [4] has as its system mixed aphids of Myzus persicae (Sulzer). The experiment in a line: Joint toxicity of I-72 + matrine, Example 34, Table 34. To be noted: A = compound I-72, B = matrine, spraying on cabbage leaves with aphids, 48 hours, read-out: LC50.
Text: Test subject: mixed aphids of Myzus persicae (Sulzer), a sensitive strain reared indoors.
Experimental method: the spraying method on leaves with aphids was adopted. Cabbage leaves with a certain number of Myzus persicae (Sulzer) were taken. The prepared pesticide solutions were evenly sprayed on both the front and back sides of the leaves in the order from low concentration to high concentration according to the experimental design. Then, the leaves were placed in a 6-cm-diameter Petri dish with filter paper. After natural air-drying in the shade, they were placed in the observation room. The experiment had 3 replicates set, and in addition, a blank control was set up. The number of dead and live insects was investigated 48 hours later. The corrected mortality rate was calculated using the Abbott's formula, and the DPS data processing software was used for statistical analysis to calculate the toxicities (LC50 values) of the single test pesticides and the mixtures under the test ratios.
as §1

The subject of assay [5] is Aphis citricola van der Goot nymphs. In words: Joint toxicity of I-72 + nicotine, Example 72, Table 72. Conditions: A = compound I-72, B = nicotine, apple leaf spraying, 48 hours. The procedure:
Test target: Aphis citricola van der Goot nymphs.
as §2
Experimental method: first, apple leaves with uniform and consistent Aphis citricola van der Goot were selected, with about 30-40 insects on each leaf. Then, they were evenly sprayed with the pesticide solution in the order from low dosage to high dosage according to the experimental design, with 1.5 mL for each leaf and 3 replicates for each treatment. In addition, a blank control was set up.
The treated test materials were placed in an observation room, and the temperature, humidity and illumination of the observation room could be adjusted as needed. The number of dead and live insects was investigated 48 hours later. […] Then, the co-toxicity coefficient of each ratio was calculated using the Sun Y-P method to evaluate the mixing effect (the same as in Example 1).

Assay [6] has as its system adult Bemisia tabaci (Gennadius). In words: Joint toxicity of I-72 + pyraclostrobin, cotton seedling spraying, Example 83, Table 83. To be noted: A = compound I-72, B = pyraclostrobin, cotton seedling spraying, 72 hours, read-out: LC50. Here is the method:
as §2
The corrected mortality rate was calculated using the Abbott's formula, and statistical analysis was performed with the DPS data processing software to obtain the toxicity regression equation and LC50 value of each single test pesticide and each mixture of different ratios.

Assay [7] deals with adult Tetranychus urticae Koch. In words: Joint toxicity of I-72 + cyetpyrafen, Example 85, Table 85. Conditions: Tetranychus urticae; A = compound I72, B = cyetpyrafen; potted-seedling spraying; 72 hours; read-out: LC50. Here is the method:
Test target: adult Tetranychus urticae Koch, a sensitive strain reared indoors.
as §2
Experimental method: the activity of the mixture against the adult Tetranychus urticae Koch was determined by adopting the potted-seedling spraying method. First, the adult Tetranychus urticae Koch of uniform size were transferred onto the leaves of kidney bean seedlings at the stage when the first pair of true leaves was fully expanded. After the adult mites had stabilized, the base number was counted. Then, the uniform spraying was performed with the pesticide solution in the order from low to high dose according to the experimental design, with 1.5 mL for each seedling and 3 replicates for each treatment. […]
The treated test materials were placed in an observation room, and the temperature, humidity and illumination of the observation room could be adjusted as needed. […] Then, the co-toxicity coefficient of each ratio was calculated using the Sun Y-P method to evaluate the mixing effect (the same as in Example 1).

In brackets after ≈: the same amount, converted by molar mass.

As for `CN(C(=O)c1ccc2c(c1)OC(F)(F)O2)c1cccc(C(=O)Nc2c(Br)cc(C(F)(C(F)(F)F)C(F)(F)F)cc2OC(F)F)c1F` [Compound I-72], the LC50 in assay [1] came to 0.0737 µg/mL; in assay [2], 1.94 µg/mL; in assay [3], 75.2 µg/mL (≈ 101 µM); in assay [4], 6.36 µg/mL; in assay [5], 3.06 µg/mL; in assay [6] it was 4.02 µg/mL. Also, the LC50 in assay [7] stood at 40.4 µg/mL.

Usually LC50 stands for the concentration that kills 50% of the test population.
